Assay results reported in patent US6620419B1, “Cosmetic or dermopharmaceutical use of peptides for healing, hydrating and improving skin appearance during natural or induced ageing (heliodermia, pollution)” (Sederma, priority 1998, dated 2003).
Non-standard residues stand in square brackets, D forms with d. No end group written: not given here. *: point of attachment. Palmitoyl = CCCCCCCCCCCCCCCC(=O)*; Sar = CNCC(=O)O

Key:
Type in all cases: cell-based
explants of human skin [1] = test: Increase in synthesis of collagen in vitro: 3H-proline incorporation in human skin explants; details: for increase of incorporation of 3H-proline (synthesis of collagen) relative to blank tests: 72 hours, human skin explants
Experimental: The method chosen is a modification of that described by Augustin C. et al. (Skin Pharmacol. (1997); 10:63-70) in that we have used explants of human skin instead of human pulmonary fibroblasts, so as to render our results directly usable in cosmetology. These explants, from abdominal or mammary plastic surgery, are incubated for 72 hours in the presence ^3H-proline, with peptide N-Palmitoyl-[…], to three final concentrations in the culture medium (2.10^-4%, 4.10^-4% and 8.10^-4%; namely, 2, 4 and 8 ppm). The explants are then washed, the […] of each explant are separated, homogenized and lysed. The measurement of the incorporation of ^3H-proline is thus carried out in each lysat. Tests were done in triplicate. In parallel, negative controls are carried out under the same conditions but in the absence of the peptide. Positive controls, themselves, are carried out by replacing the peptide tested by vitamin C.

explants of human skin [2] = test: Increase of the synthesis of glycosaminoglycans in vitro: 3H-glucosamine incorporation in human skin explants; details: for increase of incorporation of 3H-glucosamine (synthesis of GAGs) relative to blank experiments: 72 hours, human skin explants
Experimental: The method chosen is a modification of that described by Augustin C. et al. (Skin Pharmacol. (1997); 10:63-70) in that we have used explants of human skin instead of human pulmonary fibroblasts, so as to render our results directly usable in cosmetology.
These explants, from abdominal or mammary plastic surgery, are incubated for 72 hours in the presence ^3H-proline, with peptide N-Palmitoyl-Sarcosine-Thr-Thr-Lys-Ser, to three final concentrations in the culture medium (2.10^−4%, 4.10^−4% and 8.10^−4%; namely, 2, 4 and 8 ppm). The explants are then washed, the derma and epiderma of each explant are separated, homogenized and lysed. The measurement of the incorporation of ^3H-proline is thus carried out in each lysat. Tests were done in triplicate.
In parallel, negative controls are carried out under the same conditions but in the absence of the peptide. Positive controls, themselves, are carried out by replacing the peptide tested by vitamin C.
The same protocol as in Example No. 3 is used, except that, on the one hand, the incubation is carried out in the presence of ^3H-glucosamine instead of ^3H-proline and vitamin A acid is used as reference product in place of vitamin C.

human fibroblasts = test: Cutaneous toning activity in vitro: stimulation of protein synthesis, colorimetry (Biuret reaction); details: 24 hours, per 1000 cells
Experimental: For 24 hours, human fibroblasts from the same cellular culture are placed in the presence of the standard culture medium, supplemented or not for controls, with given concentrations of peptide (2, 4 and 8 ppm).
The stimulation of the synthesis of proteins is evaluated by colorimetry (so-called Biuret reaction).
To standardize the results, the quantity of proteins measured is expressed for 1000 cells present in the test.

Compound: O=C1O[C@H]([C@@H](O)CO)C(O)=C1O [ascorbic acid, reference compound]
- increase of collagen synthesis (explants of human skin [1]; reference product at 0.5mM, same conditions): 61.4 (±5) %

Compound: CC1=C(/C=C/C(C)=C/C=C/C(C)=C/C(=O)O)C(C)(C)CCC1 [vitamin A acid, reference compound]
- increase of synthesis of GAGs (explants of human skin [2]; reference product at 100 nM, same conditions): 45.3 (±2) %

Compound: KTTKSA
- increase of incorporation of 3H-glucosamine (synthesis of GAGs) relative to blank experiments (explants of human skin [2]; 2 ppm peptide): 24.5 (±3) %
- increase of incorporation of 3H-glucosamine (synthesis of GAGs) relative to blank experiments (explants of human skin [2]; 4 ppm peptide): 48.8 (±3) %
- increase of incorporation of 3H-glucosamine (synthesis of GAGs) relative to blank experiments (explants of human skin [2]; 8 ppm peptide): 67.9 (±5) %

Compound: N-Palmitoyl-Lys-Thr-Thr-Lys-Ser (Palmitoyl-KTTKS) [N-palmytoyl-Lys-Thr-Thr-Lys-Ser]
- increase in the concentration of proteins relative to control experiments (human fibroblasts; 2 ppm peptide): 14.7 (±1.0) %
- increase in the concentration of proteins relative to control experiments (human fibroblasts; 4 ppm peptide): 21.0(±2.4) %
- increase in the concentration of proteins relative to control experiments (human fibroblasts; 8 ppm peptide): 44.8(±1.0) %

Compound: N-Palmitoyl-Sarcosine-Thr-Thr-Lys-Ser (Palmitoyl-[Sar]TTKS)
- increase of incorporation of 3H-proline (synthesis of collagen) relative to blank tests (explants of human skin [1]; 2 ppm peptide): 30.2 (±2) %
- increase of incorporation of 3H-proline (synthesis of collagen) relative to blank tests (explants of human skin [1]; 4 ppm peptide): 54.7 (±5) %
- increase of incorporation of 3H-proline (synthesis of collagen) relative to blank tests (explants of human skin [1]; 8 ppm peptide): 90.9 (±5) %
